US20260124222A1, “ISOTHIAZOLYLCARBOXAMIDE COMPOUNDS AND THEIR USE IN THERAPY” (HOTSPOT THERAPEUTICS, INC., priority 2022, published 2026)

Each compound was assayed against T1, Avi-tagged FL MALT-1 (Homo sapiens, UniProt Q9UDY8) (assay: MALT-1 Fluorogenic Peptide Cleavage Assay (MALT1 inhibition assay)). Conditions: Ac-LRSR-AMC peptide substrate; 30 min pre-incubation, 90 min reaction at room temperature; fluorescence.
T1 construct: Avi-tagged FL MALT-1 (Pharmaron, stored at −70° C.); Avi-tag; purchased Pharmaron
T1 sequence (Q9UDY8 1-824): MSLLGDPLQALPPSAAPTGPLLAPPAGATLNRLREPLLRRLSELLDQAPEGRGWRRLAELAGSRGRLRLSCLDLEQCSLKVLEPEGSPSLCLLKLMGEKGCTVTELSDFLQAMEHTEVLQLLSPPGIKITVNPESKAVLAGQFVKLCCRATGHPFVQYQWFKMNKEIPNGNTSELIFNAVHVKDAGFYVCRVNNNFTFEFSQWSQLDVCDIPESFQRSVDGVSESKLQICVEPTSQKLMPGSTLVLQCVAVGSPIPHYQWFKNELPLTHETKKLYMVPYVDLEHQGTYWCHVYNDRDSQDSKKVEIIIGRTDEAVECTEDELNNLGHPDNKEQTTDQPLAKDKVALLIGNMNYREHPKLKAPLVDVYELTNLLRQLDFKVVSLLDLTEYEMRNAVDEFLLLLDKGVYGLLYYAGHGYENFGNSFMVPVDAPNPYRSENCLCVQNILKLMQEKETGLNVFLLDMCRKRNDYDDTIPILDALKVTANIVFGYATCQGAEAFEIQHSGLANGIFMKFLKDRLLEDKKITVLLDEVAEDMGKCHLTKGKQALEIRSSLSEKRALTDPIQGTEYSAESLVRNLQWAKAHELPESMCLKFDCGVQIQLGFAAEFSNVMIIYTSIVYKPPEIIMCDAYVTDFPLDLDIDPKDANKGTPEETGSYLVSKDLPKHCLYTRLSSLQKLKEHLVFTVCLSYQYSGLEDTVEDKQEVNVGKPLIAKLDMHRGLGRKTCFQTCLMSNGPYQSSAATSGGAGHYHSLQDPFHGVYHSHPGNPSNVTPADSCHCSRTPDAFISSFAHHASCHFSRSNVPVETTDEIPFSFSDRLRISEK
Assay type: biochemical
In short: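 Full-length Avi-tagged enzyme preincubated 30 min at room temperature with compound (2% DMSO final) in HEPES pH 6.89 buffer with sodium citrate, TCEP, EDTA and CHAPS. Ac-LRSR-AMC substrate added at Km or 10×Km (working stocks 50 or […] μM); fluorescence (ex 342/em 441 nm) after 90 min; IC50 from sigmoidal fit.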

`CC(C)c1nsc(C(=O)Nc2cnc(-n3nccn3)c(Cl)c2)c1C1CC1` [I-60, N-(5-CHLORO-6-(2H-1,2,3-TRIAZOL-2-YL) PYRIDIN-3-YL)-4-CYCLOPROPYL-3-ISOPROPYLISOTHIAZOLE-5-CARBOXAMIDE] and `O=C(Nc1cnc(-n2nccn2)c(Cl)c1)c1snc(-c2ccccc2)c1C1CC1` [I-6, N-(5-CHLORO-6-(2H-1,2,3-TRIAZOL-2-YL) PYRIDIN-3-YL)-4-CYCLOPROPYL-3-PHENYLISOTHIAZOLE-5-CARBOXAMIDE] cannot be ordered by IC50: at most 400 nM for the first, at most 400 nM for the second.

`O=C(Nc1ccnc(C(F)(F)F)c1)c1snc([C@@H]2CCOC2)c1C1CC1` [I-204, (S)-4-cyclopropyl-3-(tetrahydrofuran-3-yl)-N-(2-(trifluoromethyl)pyridin-4-yl)isothiazole-5-carboxamide] and `Cc1cc(NC(=O)c2snc([C@@H]3CCOC3)c2C2CC2)ccn1` [I-201, (S)-4-cyclopropyl-N-(2-methylpyridin-4-yl)-3-(tetrahydrofuran-3-yl)isothiazole-5-carboxamide] cannot be ordered by IC50: over 2500 nM for the first, over 2500 nM for the second.

`Cn1ncc2cc(NC(=O)c3snc(-c4ccccc4)c3C3CC3)cnc21` [I-47, 4-CYCLOPROPYL-N-(1-METHYL-1H-PYRAZOLO [3,4-B]PYRIDIN-5-YL)-3-PHENYLISOTHIAZOLE-5-CARBOXAMIDE] and `Cc1ncc(NC(=O)c2snc(-c3ccccc3)c2C2CC2)cc1Cl` [I-33] cannot be ordered by IC50: 400 to 1000 nM for the first, at most 400 nM for the second.

Compared with `O=C(Nc1ccc(C(=O)N2CC(O)C2)c(Cl)c1)c1snc(-c2ccccc2)c1C(F)(F)F` [I-16, N-(3-CHLORO-4-(3-HYDROXYAZETIDINE-1-CARBONYL)PHENYL)-3-PHENYL-4-(TRIFLUOROMETHYL)ISOTHIAZOLE-5-CARBOXAMIDE], `O=C(Nc1ccc(C(=O)N2CC(O)C2)nc1)c1snc(-c2ccccc2)c1C1CC1` [I-59, 4-CYCLOPROPYL-N-(6-(3-HYDROXY-AZETIDINE-1-CARBONYL)PYRIDIN-3-YL)-3-PHENYLISOTHIAZOLE-5-CARBOXAMIDE] is higher in IC50: at most 400 nM for the first, over 2500 nM for the second. The first is the more potent here.

`O=C(Nc1ccnc(C(F)(F)F)c1)c1snc(-c2ccc(F)cc2)c1C1CC1` [I-172, 4-cyclopropyl-3-(4-fluorophenyl)-N-[2-(trifluoromethyl)pyridin-4-yl]-1,2-thiazole-5-carboxamide] and `O=C(Nc1ccnc(C(F)(F)F)c1)c1snc(-c2ccc(Cl)cc2)c1C1CC1` [I-136, 3-(4-chlorophenyl)-4-cyclopropyl-N-[2-(trifluoromethyl)pyridin-4-yl]-1,2-thiazole-5-carboxamide] cannot be ordered by IC50: at most 400 nM for the first, at most 400 nM for the second.

`Cc1cccnc1-c1nsc(C(=O)Nc2cnc(-n3nccn3)c(C#N)c2)c1C1CC1` [I-112] and `N#Cc1cc(NC(=O)c2snc(-c3ccccn3)c2C2CC2)cnc1-n1nccn1` [I-27, N-(5-CYANO-6-(2H-1,2,3-TRIAZOL-2-YL) PYRIDIN-3-YL)-4-CYCLOPROPYL-3-(PYRIDIN-2-YL)ISOTHIAZOLE-5-CARBOXAMIDE] cannot be ordered by IC50: at most 400 nM for the first, at most 400 nM for the second.

`O=C(Nc1ccnc(C(F)(F)F)c1)c1snc(-c2cccc(F)c2)c1C1CC1` [I-195, 4-cyclopropyl-3-(3-fluorophenyl)-N-[2-(trifluoromethyl)pyridin-4-yl]-1,2-thiazole-5-carboxamide] and `O=C(Nc1ccnc(C(F)(F)F)c1)c1snc(-c2cccc(Cl)c2)c1C1CC1` [I-139, 3-(3-chlorophenyl)-4-cyclopropyl-N-(2-(trifluoromethyl)pyridin-4-yl)isothiazole-5-carboxamide] cannot be ordered by IC50: at most 400 nM for the first, at most 400 nM for the second.

`CN(C)c1nsc(C(=O)Nc2cnc(-n3nccn3)c(C#N)c2)c1C(F)(F)F` [I-102] and `Cn1cc(-c2nsc(C(=O)Nc3cnc(-n4nccn4)c(C#N)c3)c2C(F)(F)F)cn1` [I-37, N-(5-CYANO-6-(2H-1,2,3-TRIAZOL-2-YL)PYRIDIN-3-YL)-3-(1-METHYL-1H-PYRAZOL-4-YL)-4-(TRIFLUORO-METHYL)ISOTHIAZOLE-5-CARBOXAMIDE] cannot be ordered by IC50: at most 400 nM for the first, 400 to 1000 nM for the second.

`O=C(Nc1ccnc(C(F)(F)F)c1)c1snc(-c2ccn3ncnc3c2)c1C1CC1` [I-151, 3-([1,2,4]triazolo[1,5-a]pyridin-7-yl)-4-cyclopropyl-N-(2-(trifluoromethyl)pyridin-4-yl)isothiazole-5-carboxamide] and `O=C(Nc1ccnc(C(F)(F)F)c1)c1snc(-c2ccc3nccn3c2)c1C1CC1` [I-186, 4-cyclopropyl-3-{imidazo[1,2-a]pyridin-6-yl}-N-[2-(trifluoromethyl)pyridin-4-yl]-1,2-thiazole-5-carboxamide] cannot be ordered by IC50: 400 to 1000 nM for the first, at most 400 nM for the second.

`O=C(Nc1ccnc(C(F)(F)F)c1)c1snc(-c2cccc3c(=O)[nH]ccc23)c1C1CC1` [I-189, 4-cyclopropyl-3-(1-oxo-1,2-dihydroisoquinolin-5-yl)-N-(2-(trifluoromethyl)pyridin-4-yl)isothiazole-5-carboxamide] and `O=C(Nc1ccnc(C(F)(F)F)c1)c1snc(-c2cncc3ccccc23)c1C1CC1` [I-177, 4-cyclopropyl-3-(isoquinolin-4-yl)-N-(2-(trifluoromethyl)pyridin-4-yl)isothiazole-5-carboxamide] cannot be ordered by IC50: at most 400 nM for the first, at most 400 nM for the second.

`Cn1cc2c(-c3nsc(C(=O)Nc4ccc(C(=O)N5CC(O)C5)c(Cl)c4)c3C3CC3)cccc2n1` [I-203, N-(3-chloro-4-(3-hydroxyazetidine-1-carbonyl)phenyl)-4-cyclopropyl-3-(2-methyl-2H-indazol-4-yl)isothiazole-5-carboxamide] and `Cn1nc2cccc(-c3nsc(C(=O)Nc4ccnc(C(F)(F)F)c4)c3C3CC3)c2n1` [I-207, 4-cyclopropyl-3-(2-methyl-2H-benzo[d][1,2,3]triazol-4-yl)-N-(2-(trifluoromethyl)pyridin-4-yl)isothiazole-5-carboxamide] cannot be ordered by IC50: 400 to 1000 nM for the first, at most 400 nM for the second.

`Cc1cc(NC(=O)c2snc(-c3cccc4ncoc34)c2C2CC2)cnc1-n1nccn1` [I-113] and `Cn1nc2cccc(-c3nsc(C(=O)Nc4cnc(-n5nccn5)c(C#N)c4)c3C3CC3)c2n1` [I-126] cannot be ordered by IC50: at most 400 nM for the first, at most 400 nM for the second.

Going from `Cc1cn(C)nc1-c1nsc(C(=O)Nc2cnc(-n3nccn3)c(C#N)c2)c1C1CC1` [I-116] to `CN1CC=C(c2nsc(C(=O)Nc3cnc(-n4nccn4)c(C#N)c3)c2C2CC2)CC1` [I-134, N-(5-cyano-6-(2H-1,2,3-triazol-2-yl)pyridin-3-yl)-4-cyclopropyl-3-(1-methyl-1,2,3,6-tetrahydropyridin-4-yl)isothiazole-5-carboxamide], the IC50 rises from at most 400 nM to over 2500 nM. The first is the more potent here.

`N#Cc1cc(NC(=O)c2snc(C3CCOCC3)c2C(F)(F)F)cnc1-n1nccn1` [I-34] and `N#Cc1cc(NC(=O)c2snc(C3CCOC3)c2C2CC2)cnc1-n1nccn1` (stereo not shown) [I-115] cannot be ordered by IC50: at most 400 nM for the first, at most 400 nM for the second.

`N#Cc1cccc(-c2nsc(C(=O)Nc3ccnc(C(F)(F)F)c3)c2C2CC2)c1` [I-158, 3-(3-cyanophenyl)-4-cyclopropyl-N-[2-(trifluoromethyl)pyridin-4-yl]-1,2-thiazole-5-carboxamide] and `CC(=O)Nc1cccc(-c2nsc(C(=O)Nc3ccnc(C(F)(F)F)c3)c2C2CC2)c1` [I-141, 4-cyclopropyl-3-(3-acetamidophenyl)-N-[2-(trifluoromethyl)pyridin-4-yl]-1,2-thiazole-5-carboxamide] cannot be ordered by IC50: at most 400 nM for the first, 400 to 1000 nM for the second.

Going from `CN1CCC(c2nsc(C(=O)Nc3cnc(-n4nccn4)c(C#N)c3)c2C2CC2)CC1` [I-122] to `Cc1cc(NC(=O)c2snc(-c3ccccc3)c2C2CC2)cnc1-n1ccnn1` [I-48, 4-CYCLOPROPYL-N-(5-METHYL-6-(1H-1,2,3-TRIAZOL-1-YL)PYRIDIN-3-YL)-3-PHENYLISOTHIAZOLE-5-CARBOXAMIDE], the IC50 falls from over 2500 nM to at most 400 nM.

`COc1ccccc1-c1nsc(C(=O)Nc2ccnc(C(F)(F)F)c2)c1C1CC1` [I-161, 4-cyclopropyl-3-(2-methoxyphenyl)-N-[2-(trifluoromethyl)pyridin-4-yl]-1,2-thiazole-5-carboxamide] and `Cc1ccncc1-c1nsc(C(=O)Nc2ccnc(C(F)(F)F)c2)c1C1CC1` [I-173, 4-cyclopropyl-3-(4-methylpyridin-3-yl)-N-(2-(trifluoromethyl)pyridin-4-yl)isothiazole-5-carboxamide] cannot be ordered by IC50: at most 400 nM for the first, at most 400 nM for the second.

`O=C(Nc1ccnc(C(F)(F)F)c1)c1snc(-c2ccccc2)c1C(F)(F)F` [I-15, 3-PHENYL-4-(TRIFLUOROMETHYL)-N-(2-(TRIFLUOROMETHYL)PYRIDIN-4-YL)ISOTHIAZOLE-5-CARBOXAMIDE] and `O=C(Nc1ccnc(C(F)(F)F)c1)c1snc(-c2cccnc2)c1C1CC1` [I-165, 4-cyclopropyl-3-(pyridin-3-yl)-N-(2-(trifluoromethyl)pyridin-4-yl)isothiazole-5-carboxamide] cannot be ordered by IC50: at most 400 nM for the first, at most 400 nM for the second.

`Cc1c(-c2nsc(C(=O)Nc3ccnc(C(F)(F)F)c3)c2C2CC2)cnn1C` [I-183, 4-cyclopropyl-3-(1,5-dimethyl-1H-pyrazol-4-yl)-N-(2-(trifluoromethyl)pyridin-4-yl)isothiazole-5-carboxamide] gave an IC50 of at most 400 nM.
